System: major depressive disorders
Test: Effect of osanetant on major depressive disorders in patients
Format: in vivo, human
Conditions: patients 18 to 65 years of age with major depressive disorders; osanetant 200 mg/day for about 6 weeks
Protocol: The effect of osanetant on major depressive disorders has been investigated in patients of between 18 and 65 years of age. The patients were given osanetant (200 mg/day) for a period of about 6 weeks.

CC(=O)N(C)C1(c2ccccc2)CCN(CCC[C@]2(c3ccc(Cl)c(Cl)c3)CCCN(C(=O)c3ccccc3)C2)CC1 [osanetant, (R)-(+)-N-[(3-(1-benzoyl-3-(3,4-dichlorophenyl)piperidin-3-yl)propyl)-4-phenylpiperidin-4-yl]-N-methyl acetamide]
scores on the Hamilton scale (improvement in the depressive syndrome): significant reduction

From US6420388B1, “Osanetant in the treatment of depression and depressive disorders” (Sanofi-Synthelabo, priority 1999, dated 2002)
